Test results as given in article PMC6858373 (Scientific Reports, 2019).
Structures can show the parent of a compound that is named as a salt. Where two headings read alike, the source gives them in different places.

Tests used:
[1] = target: T1, FGF14:Nav1.6 C-tail complex (Homo sapiens, UniProt Q92915+Q9UQD0); assay: Split-luciferase complementation assay (LCA) in Clone V double stable HEK293 cells; format: cell-based
T1 construct: polymerase chain reaction (PCR) amplification of the FGF14 open reading frame (nt 1–855); C-terminal fragment of Nav1.6 (amino acids 1763–1976) fused with CD4ΔC-tail (amino acids 1–395); expressed in transfected cells
T1 sequence (Q92915 1-252 isoform Q92915-2): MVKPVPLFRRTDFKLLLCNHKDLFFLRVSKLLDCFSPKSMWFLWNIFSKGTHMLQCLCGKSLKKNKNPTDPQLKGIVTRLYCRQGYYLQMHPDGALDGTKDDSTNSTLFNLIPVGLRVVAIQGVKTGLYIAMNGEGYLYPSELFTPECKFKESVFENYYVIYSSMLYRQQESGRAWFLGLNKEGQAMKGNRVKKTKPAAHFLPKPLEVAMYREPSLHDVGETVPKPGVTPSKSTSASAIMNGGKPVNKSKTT
T1 sequence (Q9UQD0 1763-1976 limits assumed): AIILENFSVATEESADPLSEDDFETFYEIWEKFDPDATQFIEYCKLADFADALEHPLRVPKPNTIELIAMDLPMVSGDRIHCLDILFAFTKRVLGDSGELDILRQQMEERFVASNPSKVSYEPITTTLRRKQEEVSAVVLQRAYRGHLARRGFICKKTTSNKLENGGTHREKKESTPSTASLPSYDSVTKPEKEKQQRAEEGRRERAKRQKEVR

[2] = target: full-length P. pyralis luciferase (Photinus pyralis, UniProt P08659, K549A/L550V/N119G/N50D/S548I); format: cell-based
full-length P. pyralis luciferase, sequence (P08659 whole entry N50D/N119G/S548I/K549A/L550V, looked up): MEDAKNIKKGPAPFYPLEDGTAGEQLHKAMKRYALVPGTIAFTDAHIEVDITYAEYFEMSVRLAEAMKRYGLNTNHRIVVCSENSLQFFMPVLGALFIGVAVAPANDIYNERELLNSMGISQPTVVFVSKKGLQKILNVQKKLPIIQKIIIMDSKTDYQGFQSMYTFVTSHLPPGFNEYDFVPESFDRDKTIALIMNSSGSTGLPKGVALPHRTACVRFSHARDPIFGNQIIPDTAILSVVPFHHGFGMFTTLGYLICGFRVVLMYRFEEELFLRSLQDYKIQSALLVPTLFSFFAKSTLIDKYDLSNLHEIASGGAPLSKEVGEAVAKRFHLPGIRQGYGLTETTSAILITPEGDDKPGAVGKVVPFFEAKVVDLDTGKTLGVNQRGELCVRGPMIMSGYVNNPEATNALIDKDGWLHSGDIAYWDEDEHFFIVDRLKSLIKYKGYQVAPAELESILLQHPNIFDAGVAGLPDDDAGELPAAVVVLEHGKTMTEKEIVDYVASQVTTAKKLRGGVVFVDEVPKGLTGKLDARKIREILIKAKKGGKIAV

Clone V cells = conditions: human
in vitro = conditions: human
[3] = CC_NCI screening, biological replicate Set 1, normalized to on-plate 0.3% DMSO controls
[4] = CC_NCI screening, biological replicate Set 1, normalized to on-plate 0.3% DMSO controls (n=16 per plate)
[5] = CC_NCI screening, biological replicate Set 2, normalized to on-plate 0.3% DMSO controls
[6] = CC_NCI screening, biological replicate Set 2, normalized to on-plate 0.3% DMSO controls (n=16 per plate)
[7] = average of Set 1 and Set 2, normalized to 0.3% DMSO controls
[8] = CC_NCI screening, normalized to on-plate 0.3% DMSO controls

Row | SMILES | Split Luciferase Assay Z-score Set 1 [1, 3] | Split Luciferase Assay % Lum Set 1 [1, 4] [%] | Split Luciferase Assay Z-score Set 2 [1, 5] | Split Luciferase Assay %Lum Set 2 [1, 6] [%] | Split Luciferase Assay %Lum Avg [1, 7] [%] | Luciferase Assay % Lum (full-length luciferase counter-screen) [2, 8] [%] | Luciferase Assay Z-score (full-length luciferase counter-screen) [2, 8] | Toxicity Assay Z-score (CTB cell viability) (Clone V cells; 16 h, 30 µM) | viability at 16 h, 30 µM (in vitro; Clone V cells) [%] | viability at 16 h, 30 µM (in vitro) [%] | further results
1 | CS(=O)(=O)OCCCCOS(C)(=O)=O [Busulfan] | -0.50 | 93.82 | 1.01 | 112.35 | 103.09 | 97.98 | -0.26 | 0.92 | 107 | – | –
2 | NCC(=O)CCC(=O)O [Aminolevulinic acid hydrochloride] | -0.06 | 99.25 | 0.75 | 109.23 | 104.24 | 100.02 | 0.00 | 0.31 | 102 | – | –
3 | COc1cc(F)c(F)c(Nc2ccc(I)cc2F)c1NS(=O)(=O)C1(C[C@H](O)CO)CC1 [RDEA119] | -7.09 | 12.28 | -7.37 | 9.36 | 10.82 | 66.81 | -4.25 | 0.34 | – | 102 | –
4 | CN(C)/N=N/c1[nH]cnc1C(N)=O [Dacarbazine] | 3.01 | – | 2.70 | 133.16 | 135.23 | – | – | 0.82 | – | 106 | Luciferase Assay % Lum (full-length luciferase counter-screen) [2]: 99.29%; Luciferase Assay Z-score (full-length luciferase counter-screen) [2]: -0.09
5 | CC/C(=C(\c1ccccc1)c1ccc(OCCN(C)C)cc1)c1ccccc1 [Tamoxifen citrate] | – | – | – | – | – | – | – | -7.92 | – | 43.4 | Split Luciferase Assay % Lum Set 1 [1]: 4.67%; Split Luciferase Assay %Lum Avg [1]: 2.86%; Split Luciferase Assay %Lum Set 2 [1]: 1.04%; Split Luciferase Assay Z-score Set 1 [1]: -7.70; Split Luciferase Assay Z-score Set 2 [1]: -8.05; Luciferase Assay % Lum (full-length luciferase counter-screen) [2]: 59.05%; Luciferase Assay Z-score (full-length luciferase counter-screen) [2]: -5.24
6 | CC1(C)CNc2cc(NC(=O)c3cccnc3NCc3ccncc3)ccc21 [MOTESANIB] | -1.77 | 78.05 | -0.86 | 89.47 | 83.76 | 76.36 | -3.03 | -0.04 | 99.7 | – | –
7 | C1CN1c1nc(N2CC2)nc(N2CC2)n1 [Triethylenemelamine] | – | – | – | – | – | – | – | – | – | – | Split Luciferase Assay % Lum Set 1 [1]: 118.82%; Split Luciferase Assay %Lum Avg [1]: 117.67%; Split Luciferase Assay %Lum Set 2 [1]: 116.51%; Split Luciferase Assay Z-score Set 1 [1]: 1.52; Split Luciferase Assay Z-score Set 2 [1]: 1.34; Luciferase Assay % Lum (full-length luciferase counter-screen) [2]: 108.47%; Luciferase Assay Z-score (full-length luciferase counter-screen) [2]: 1.08; Toxicity Assay Z-score (CTB cell viability) (Clone V cells): 0.82; viability (in vitro): 106%
8 | Nc1ccn([C@@H]2O[C@H](CO)[C@@H](O)[C@@H]2O)c(=O)n1 [Cytarabine hydrochloride] | -0.50 | 93.82 | 0.16 | 101.95 | 97.88 | 93.77 | -0.80 | 1.12 | – | 108 | –
9 | NC(=O)Nc1cc(-c2cccc(F)c2)sc1C(=O)N[C@H]1CCCNC1 [AZD 7762] | -1.38 | 82.95 | -2.63 | 67.62 | 75.28 | 92.74 | -0.93 | – | – | – | Toxicity Assay Z-score (CTB cell viability) (Clone V cells): 0.35; viability (in vitro): 102%
10 | CC(=O)O[C@H]1C(=O)[C@@]2(C)[C@H]([C@H](OC(=O)c3ccccc3)[C@]3(O)C[C@H](OC(=O)[C@H](O)[C@@H](NC(=O)c4ccccc4)c4ccccc4)C(C)=C1C3(C)C)[C@]1(OC(C)=O)CO[C@@H]1C[C@@H]2O [Paclitaxel] | -1.03 | 87.29 | -0.43 | 94.67 | 90.98 | 114.27 | 1.83 | 1.59 | – | 111 | –
11 | O=C(O)CCCc1ccc(N(CCCl)CCCl)cc1 [Chlorambucil, reference compound] | 13.12 | 262.32 | 11.67 | 243.43 | 252.88 | 97.90 | -0.27 | – | – | – | Z-score (LCA primary screening) ([1]; 30 µM, 384-well, average of primary screening (n = 2), vs on-plate 0.3% DMSO): 12.39; EMax (% Luminescence) ([1]; agonists, Clone V cells, 384-well, normalized to DMSO): 252.88 % Luminescence; EC50 ([1]; estimated, 8-point dose response 0.25-30 µM, n = 4 per concentration, library compounds, read-out: EC50): 16.4 µM; Toxicity Assay Z-score (CTB cell viability) (Clone V cells): 0.71; viability (in vitro): 105%
12 | CNNCc1ccc(C(=O)NC(C)C)cc1 [Procarbazine hydrochloride] | 1.52 | 118.82 | -0.26 | 96.75 | 107.78 | – | – | 1.21 | – | 109 | Luciferase Assay % Lum (full-length luciferase counter-screen) [2]: 99.34%; Luciferase Assay Z-score (full-length luciferase counter-screen) [2]: -0.08
13 | CC(=O)[C@]1(O)Cc2c(O)c3c(c(O)c2[C@@H](O[C@H]2C[C@H](N)[C@H](O)[C@H](C)O2)C1)C(=O)c1ccccc1C3=O [Idarubicin hydrochloride] | 0.12 | 101.43 | -0.69 | 91.55 | 96.49 | 114.41 | 1.85 | 1.79 | 113 | – | –
14 | Nc1ccn([C@@H]2O[C@H](CO)[C@@H](O)C2(F)F)c(=O)n1 [Gemcitabine hydrochloride] | 0.29 | 103.60 | -0.43 | 94.67 | 99.13 | 102.42 | 0.31 | 2.40 | 117 | – | –
